# Data taken from patent US20230085263A1, “TASTEFUL NATURAL SWEETENER AND FLAVOR” (EPC Natural Products Co., Ltd., priority 2018, published 2023).
# “Also recorded” adds a separate entry of the source.
# What was measured:
# [1] = Assay to test reducing power (iron-III reduction test for anti-oxidant potential); type: physicochemical; conditions: combinations of amino acids and Reb-A, 100° C., 0, 2.5 or 5.0 hours, diluted 1:10
# Experimental: Assay to Test Reducing Power
# 0.2 M Sodium phosphate buffer, pH=6.6; 500 mg Potassium ferric(III)cyanide/50 mL water, 10% Trichloroacetic acid; 20 mg Iron-III-Chloride/20 mL water; Calibration samples were prepared with Ascorbic acid in a concentration of 0-100 μg/mL 0.2 M Sodium phosphate buffer, pH=6.6 (freshly prepared); as negative control sample water was used.
# Samples in aqueous solution were used as such or diluted in 0.2 M Sodium phosphate buffer, pH=6.6.
# A 1 mL sample (or calibration standard) was mixed with 1 mL 0.2 M Sodium phosphate buffer, pH=6.6 and 1 mL Potassium ferricyanide solution. The sample was incubated and protected from light at 50° C. for 20 min.
# To the solution was added 1 mL Trichloroacetic acid with thorough mixing.
# A 1 mL of the mixture was diluted with 1 mL H2O and 0.2 mL Iron-Ill-chloride and reacted for 10 minutes; The absorbance was then determined at 700 nm against H2O.
# 10 mM of amino acid and/or 10 mM sugar were dissolved in 10 ml 0.1 mM KH2PO4-buffer, pH=7.8. […]
# 1 ml sample (or calibration standard) solution) was mixed with 0.2 M Sodium phosphate buffer (pH=6.6) and 1 ml Potassium ferric(III)cyanide solution in water (1% w/v) and incubated at 50° C. for 20 minutes. […] The sample was incubated for 10 minutes and absorbance read at 700 nm against a water control. […]
# Quantification was performed by linear regression of calibration test results for ascorbic acid. […]
# [2] = DPPH radical-scavenging activity (DPPH test for anti-oxidant potential); type: physicochemical; conditions: combinations of amino acids and Reb-A, 100° C., 0, 2.5 or 5.0 hours, diluted 1:10
# Experimental: Assay to Rest DPPH Radical-Scavenging Activity
# 1 mg 1,1-Diphenyl-2-picrylhydrazyl radical (DPPH)/ml ethanol, dilution to assay concentration were prepared in ethanol (40 μg/mL); Calibration samples were prepared with Ascorbic acid in a concentration of 0-10 μg/mL; as a negative control sample, water was used.
# Samples in aqueous solution were used as such or diluted with water.
# A 0.1 ml sample (or calibration standard) was mixed with 3.9 ml solution of DPPH° (100 μMolar) and reacted while protected from light at room temperature for 30 min. Absorbance was determined at 517 nm against ethanol.
# 10 mM of amino acid and/or 10 mM sugar were dissolved in 10 ml 0.1 mM KH2PO4-buffer, pH=7.8.
# The samples were kept at 100° C. in sealed glass vials (Pyrex 15 ml with screw caps) for 0 (before reaction), 2.5 or 5.0 hours. Thereafter the samples were transferred to an ice water bath and cooled down to room temperature. These samples were diluted 1:10 and used for the test assay for anti-oxidant potential. […]
# 0.2 ml sample (or calibration standard) solution was mixed with 0.2 ml solution of DPPH° (0.1 mM) and 3.6 ml methanol. […] After 3 minutes the absorbance at 517 nm was obtained against ethanol. Quantification was performed by linear regression of calibration test results for ascorbic acid. […]
# [3] = Stevia-derived MRPs with NHDC and Thaumatin in Red Bull sugarfree (Example 240); type: in vivo; conditions: 150 μl of sample in 100 ml Redbull sugar free
# Experimental: Stevia-derived MRPs (Reference): 0.67 g xylose, 0.33 g phenylalanine and 4 g Stevia extract TSG95 were dissolved in 2.5 g deionized water. The solution was heated at about 100° C. for 2 h. After the reaction was complete, the slurry was diluted with 25 g water.
# (§1) Stevia-derived MRPs by Combination of GSGs and SGs: 0.67 g xylose, 0.33 g phenylalanine, 4 g SGA (Combination of GSGs and SGs) were dissolved in 2.5 g deionized water. The solution was heated at about 100° C. for 2 h. After the reaction was complete, the slurry was diluted with 25 g water.
# as §1, with “SGs and NHDC:” for “SGs:”, “SGs) and 3 ppm (=82.5 μg) NHDC” for “SGs)”, “in” for “in 2.5 g deionized”
# as §1, with “by SGA (Combination” for “by Combination”, “and SGs), NHDC and Thaumatin:” for “and SGs:”, “and SGs), 3 ppm (=82.5 μg) NHDC and 5 ppm (=302.5 μg EPCalin 45%) Thaumatin” for “and SGs)”
# 150 μl of the each sample was added to 100 ml Redbull sugar free and mixed. The taste profiles of the samples were compared. […]
# [4] = Sensory evaluation of combinations of NHDC, EPCalin (Thaumatin) and Combination of GSGs and SGs in water (Example 234); type: in vivo; conditions: 4.5 ppm Thaumatin and/or 50 ppm GSGs and SGs
# Experimental: 4.5 ppm Thaumatin (equivalent to 10 ppm EPCalin) were dissolved in water. Increasing amounts of NHDC (1-5 ppm) were added to the solution and the sensory properties were evaluated.
# 50 ppm (GSGs and SGs) were dissolved in water. Increasing amounts of NHDC (1-5 ppm) were added to the solution and the sensory properties were evaluated.
# 50 ppm (GSGs and SGs) and 4.5 ppm Thaumatin (equivalent to 10 ppm EPCalin) were dissolved in water. Increasing amounts of NHDC (1-5 ppm) were added to the solution and the sensory properties were evaluated.
# Sweetness intensity was rated on 5-point scale
# [5] = Kinetics of reaction in dependence of pH-conditions: degradation of Phe and Reb-A, Gluc, Xyl, Suc (HPLC/MS); conditions: KH2PO4 Buffer, 1.0 h, 120° C.; for Degradation: reaction of Phe and Gluc; for % formation from degraded Phe: reaction of Phe and Suc, n.d. = not detected
# Experimental: All samples were analyzed by HPLC/MS using following conditions.
# The mobile phase consisted of (A) 0.1% HCOOH (v/v) and (B) AcCN. A gradient of 5% (B) to 15% (B) was applied between 0 min to 15 min. Between 15 and 20 min (B) was increased to 45% which was kept for 5 min. Detection consisted of UV/VIS-DAD (205 nm, 254 nm, 450 nm) coupled to ESI-MS (pos mode, 300° C., TIC from m/z 120-1200, fragmentor 100).
# Quantitative Evaluation was Performed Using External Standardization.
# [6] = Degree of kokumi with thickeners carrageenan, gellan gum, Tamarind gum (Examples 168-170); design: species or system people; conditions: in vivo
# Experimental: Carrageenan was added to pure water to prepare several carrageenan solutions with a concentration gradient as standard solutions for judging the degree of kokumi of the carrageenan solutions. […] Method: For evaluation of the degree of kokumi, the sample solutions (described above) were tested by a panel of four people. […] The tester was allowed to re-taste, and then made judgment. […] Gellan gum was added to pure water to prepare several gellan gum solutions with a concentration gradient as standard solutions for judging the degree of kokumi of the gellan gum solutions. […] Method: For evaluation of the degree of kokumi, the sample solutions (described above) were tested by a panel of four people. […] The tester was allowed to re-taste, and then made judgment. […] Tamarind gum was added to pure water to prepare several Tamarind gum solutions with a concentration gradient as standard solutions for judging the degree of kokumi of the Tamarind gum solutions. […] Method: For evaluation of the degree of kokumi, the sample solutions (described above) were tested by a panel of four people. […] The tester was allowed to re-taste, and then made judgment.
compound,measurement,setting,value
"C=C1C[C@@]23CC[C@H]4[C@@](C)(CCC[C@@]4(C)C(=O)O[C@@H]4O[C@H](CO)[C@@H](O)[C@H](O)[C@H]4O)[C@@H]2CC[C@]1(O[C@@H]1O[C@H](CO)[C@@H](O)[C@H](O[C@@H]2O[C@H](CO)[C@@H](O)[C@H](O)[C@H]2O)[C@H]1O[C@@H]1O[C@H](CO)[C@@H](O)[C@H](O)[C@H]1O)C3 [Reb-A, Rebaudioside A]",anti-oxidant properties (active iron-III reduction),[1],substantial anti-oxidant properties
same,anti-oxidant properties (radical scavenging),[2],substantial anti-oxidant properties
"COc1ccc(CCC(=O)c2c(O)cc(O[C@@H]3O[C@H](CO)[C@@H](O)[C@H](O)[C@H]3O[C@@H]3O[C@@H](C)[C@H](O)[C@@H](O)[C@H]3O)cc2O)cc1O [NHDC, Neohesperidin dihydrochalcone]",taste profile in sugarfree beverage,[3],improved the mouth-feel and harmony of taste impression yielding a substantially improved taste profile
same,"sensory properties (sweetness, onset, lingering, mouth-feel)",[4],long lasting lingering; also recorded: boosts the lingering
"NC(Cc1ccccc1)C(=O)O (single isomer, unassigned) [Phe]",Degradation,[5]; pH = 5.5,2.26
same,Degradation,[5]; pH = 7.0,2.18
same,Degradation,[5]; pH = 8.5,4.24
OC[C@H]1OC(O)[C@H](O)[C@@H](O)[C@@H]1O (stereo partly shown) [Glu],Degradation,[5]; pH = 5.5,3.65
same,Degradation,[5]; pH = 7.0,4.6
same,Degradation,[5]; pH = 8.5,7.62
carrageenan,concentration above which taste like starch paste can be clearly felt,[6],exceeds 1000 ppm
O=C(O)[C@H](Cc1ccccc1)NCC(=O)[C@@H](O)[C@H](O)[C@H](O)CO [MRI (Phe-Glu)],% formation from degraded Phe,[5]; pH = 5.5,<0.10%
same,% formation from degraded Phe,[5]; pH = 7.0,0.54%
same,% formation from degraded Phe,[5]; pH = 8.5,0.84%
gellan gum,concentration above which taste like starch paste can be clearly felt,[6],exceeds 1400 ppm
Tamarind gum,concentration above which taste like starch paste can be clearly felt,[6],exceeds 1400 ppm
